Here are results for 40 compounds from US8802720B2, “Acylamino-substituted fused cyclopentanecarboxylic acid derivatives and their use as pharmaceuticals” (SANOFI, priority 2008, dated 2014).

pIC50: −log10 of the molar value. A value given as a limit tells only on which side of the number the result lay.

Sequence of human Edg-2 receptor (LPA1 receptor) (Q92633 whole entry): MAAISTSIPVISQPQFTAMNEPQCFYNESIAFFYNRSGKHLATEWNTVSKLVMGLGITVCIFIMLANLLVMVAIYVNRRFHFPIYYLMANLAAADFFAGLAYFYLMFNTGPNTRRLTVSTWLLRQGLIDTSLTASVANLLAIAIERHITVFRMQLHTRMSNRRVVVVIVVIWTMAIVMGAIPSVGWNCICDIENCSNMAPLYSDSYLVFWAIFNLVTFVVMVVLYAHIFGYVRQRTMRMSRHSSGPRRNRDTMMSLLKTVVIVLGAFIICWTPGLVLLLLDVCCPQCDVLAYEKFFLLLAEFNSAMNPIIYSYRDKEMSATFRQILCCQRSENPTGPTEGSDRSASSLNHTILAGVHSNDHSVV

This test deals with human Edg-2 receptor (LPA1 receptor) (Homo sapiens, UniProt Q92633). As to the kind of experiment: Edg-2 receptor inhibition by FLIPR calcium fluorescence measurement (LPA-mediated calcium liberation). Format: cell-based. As to conditions: CHO cells stably overexpressing human Edg-2 receptor; LPA 18:1 100 nM; fluo-4 fluorescence; triplicate; read-out: Inhibitory concentrations IC50 for inhibition of the Edg-2 receptor. A digest of the protocol:
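CHO cells stably overexpressing human Edg-2 were fluo-4 loaded and pre-incubated ~5 min with compound (≤0.3% DMSO) in HBSS/HEPES/probenecid, pH 7.5. Then LPA 18:1 at 100 nM final was added. Peak calcium fluorescence over ~3 min, baseline-corrected versus DMSO, gave % inhibition in triplicate and IC50.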
Turning to `Cc1cccc(CCOc2cc(C(=O)NC3(C(=O)O)Cc4ccccc4C3)ccc2OCc2ccccc2)c1` [Example 253, 2-[4-Benzyloxy-3-(2-m-tolyl-ethoxy)-benzoylamino]-indane-2-carboxylic acid], the pIC50 was > 7.00.

In the case of `Cc1cccc(CCOc2cc(C(=O)NC3(C(=O)O)Cc4ccccc4C3)ccc2F)c1` [Example 145], the pIC50 is 6.00 to 7.00.

For `COc1ccc(C(=O)NC2(C(=O)O)Cc3ccccc3C2)cc1OCC1(c2ccccc2)COC1` [Example 250, 2-[4-Methoxy-3-(3-phenyl-oxetan-3-ylmethoxy)-benzoylamino]-indane-2-carboxylic acid], the pIC50 is > 7.00.

`COc1ccc(C(=O)NC2(C(=O)O)Cc3ccccc3C2)cc1-c1cccc(C#N)c1` [Example 297]: the pIC50 was > 7.00.

In the case of `COc1ccc(C(=O)NC2(C(=O)O)Cc3ccccc3C2)cc1-c1cc(F)c(F)c(F)c1` [Example 306], the pIC50 is > 7.00.

As to `COc1ccc(C(=O)NC2(C(=O)O)Cc3ccccc3C2)cc1-c1cccc(Cl)c1C` [Example 327], the pIC50 is > 7.00.

In the case of `COc1ccc(C(=O)NC2(C(=O)O)Cc3ccccc3C2)cc1OCCc1cccc2ccccc12` [Example 44], the pIC50 was 4.52 to 6.00.

Regarding `COc1ccc(C(=O)NC2(C(=O)O)Cc3ccccc3C2)cc1OCCC(C)C` [Example 36], the pIC50 is 4.52 to 6.00.

With `COc1ccc(C(=O)NC2(C(=O)O)Cc3ccccc3C2)cc1N(C)CCc1cccc(C)c1` [Example 172, 2-{4-Methoxy-3-[methyl-(2-m-tolyl-ethyl)-amino]-benzoylamino}-indane-2-carboxylic acid], the pIC50 is 4.52 to 6.00.

With `COc1ccc(F)cc1-c1cc(C(=O)NC2(C(=O)O)Cc3ccccc3C2)ccc1OC` [Example 304], the pIC50 is > 7.00.

Take `COc1ccc(C(=O)NC2(C(=O)O)Cc3ccccc3C2)cc1-c1cccc(C)c1` [Example 286]: the pIC50 was > 7.00.

As to `COc1ccc(C(=O)NC2(C(=O)O)Cc3ccccc3C2)cc1NC(=O)Cc1ccccc1` [Example 117, 2-(4-Methoxy-3-phenylacetylamino-benzoylamino)-indane-2-carboxylic acid], the pIC50 was 6.00 to 7.00.

As for `COc1ccc(C(=O)NC2(C(=O)O)Cc3ccccc3C2)cc1OCCc1cc(C)cc(C)c1` [Example 22], the pIC50 was 4.52 to 6.00.

In the case of `COc1ccc(C(=O)NC2(C(=O)O)Cc3ccccc3C2)cc1OCCc1cccc(O)c1` [Example 251, 2-{3-[2-(3-Hydroxy-phenyl)-ethoxy]-4-methoxy-benzoylamino}-indane-2-carboxylic acid], the pIC50 is 4.52 to 6.00.

With `COc1ccc(C(=O)NC2(C(=O)O)Cc3ccccc3C2)cc1SCCc1cccc(C)c1` [Example 180, 2-[4-Methoxy-3-(2-m-tolyl-ethylsulfanyl)-benzoylamino]-indane-2-carboxylic acid], the pIC50 is > 7.00.

With `Cc1cccc(CCOc2cc(C(=O)NC3(C(=O)O)Cc4ccccc4C3)ccc2N(C)C)c1` [Example 165, 2-[4-Dimethylamino-3-(2-m-tolyl-ethoxy)-benzoylamino]-indane-2-carboxylic acid], the pIC50 is 6.00 to 7.00.

Take `COc1ccc(C(=O)NC2(C(=O)O)Cc3ccccc3C2)cc1OCCCCCC(=O)O` [Example 84]: the pIC50 was 4.52 to 6.00.

As for `COc1ncc(C(=O)NC2(C(=O)O)Cc3ccccc3C2)cc1-c1ccc(Cl)cc1` [Example 226], the pIC50 is > 7.00.

For `COc1ccc(C(=O)NC2(C(=O)O)Cc3cccnc3C2)cc1OCCc1cccc(C)c1` (stereo not shown) [Example 101, 6-[4-Methoxy-3-(2-m-tolyl-ethoxy)-benzoylamino]-6,7-dihydro-5H-[1]pyrindine-6-carboxylic acid], the pIC50 is 4.52 to 6.00.

For the compound `Cc1cccc(CCOc2cc(C(=O)NC3(C(=O)O)Cc4ccccc4C3)ccc2OCCC(C)(C)C)c1` [Example 261], the pIC50 is 6.00 to 7.00.

Take `COc1ccc(C(=O)NC2(C(=O)O)Cc3ccccc3C2)cc1OCCc1ccc(F)cc1` [Example 136]: the pIC50 was 4.52 to 6.00.

In the case of `CCSc1cccc(-c2cc(C(=O)NC3(C(=O)O)Cc4ccccc4C3)ccc2OC)c1` [Example 308], the pIC50 is > 7.00.

Regarding `CCCCCOc1ccc(C(=O)NC2(C(=O)O)Cc3ccccc3C2)cc1OCCc1cccc(C)c1` [Example 263], the pIC50 was > 7.00.

On to `COc1ccc(C(=O)NC2(C(=O)O)Cc3ccccc3C2)cc1OCc1nccc(Cl)c1OC` [Example 52], for which the pIC50 was 4.52 to 6.00.

Regarding `O=C(NC1(C(=O)O)Cc2ccccc2C1)c1ccc(C(F)(F)F)c(OCCc2cc(Cl)ccc2F)c1` [Example 189], the pIC50 is > 7.00.

With `COc1ccc(C(=O)NC2(C(=O)O)Cc3ccccc3C2)cc1OCCC1CCN(Cc2ccccc2)CC1` [Example 66], the pIC50 is 4.52 to 6.00.

In the case of `COc1ccc(C(=O)NC2(C(=O)O)Cc3ccccc3C2)cc1OCCc1cccc(C(N)=O)c1` [Example 95, 2-{3-[2-(3-Carbamoyl-phenyl)-ethoxy]-4-methoxy-benzoylamino}-indane-2-carboxylic acid], the pIC50 is 4.52 to 6.00.

Regarding `COc1ccc(C(=O)NC2(C(=O)O)Cc3ccccc3C2)cc1-c1cccc(C(F)(F)F)c1` [Example 200], the pIC50 is > 7.00.

As to `COc1ccc(C(=O)NC2(C(=O)O)Cc3ccccc3C2)cc1OCC1CCC(C)CC1` (stereo not shown) [Example 57], the pIC50 was 4.52 to 6.00.

Take `COc1ccc(C(=O)NC2(C(=O)O)Cc3ccccc3C2)cc1OCc1snnc1-c1ccccc1` [Example 89]: the pIC50 was 4.52 to 6.00.

`COc1ncc(C(=O)NC2(C(=O)O)Cc3ccccc3C2)cc1-c1cccc(SC)c1` [Example 222, 2-{[6-Methoxy-5-(3-methylsulfanyl-phenyl)-pyridine-3-carbonyl]-amino}-indane-2-carboxylic acid]: the pIC50 is > 7.00.

As for `COc1ncc(C(=O)NC2(C(=O)O)Cc3ccccc3C2)cc1-c1cc(Cl)cc(C(F)(F)F)c1` [Example 235], the pIC50 is > 7.00.

On to `COc1ccc(C(=O)NC2(C(=O)O)Cc3ccccc3C2)cc1-c1cc(F)cc(Cl)c1` [Example 342], for which the pIC50 is > 7.00.

Consider `COc1ccc(C(=O)NC2(C(=O)O)Cc3ccccc3C2)cc1OCCSc1nccn1C` [Example 75], for which the pIC50 was 4.52 to 6.00.

As for `COc1ccc(C(=O)NC2(C(=O)O)Cc3ccccc3C2)cc1OCC1CC(c2ccccn2)=NO1` (stereo not shown) [Example 90], the pIC50 is 4.52 to 6.00.

On to `COc1ccc(C(=O)NC2(C(=O)O)Cc3ccccc3C2)cc1NCCc1cccc(C)c1` [Example 171, 2-[4-Methoxy-3-(2-m-tolyl-ethylamino)-benzoylamino]-indane-2-carboxylic acid], for which the pIC50 is > 7.00.

Turning to `CCOc1ccc2ccccc2c1-c1cc(C(=O)NC2(C(=O)O)Cc3ccccc3C2)ccc1OC` [Example 331], the pIC50 was 6.00 to 7.00.

For the compound `COCCOc1ccc(C(=O)NC2(C(=O)O)Cc3ccccc3C2)cc1OCCc1cccc(C)c1` [Example 256], the pIC50 is > 7.00.

Consider `CCOc1ccc(-c2cc(C(=O)NC3(C(=O)O)Cc4ccccc4C3)ccc2OC)cc1C` [Example 340], for which the pIC50 is 6.00 to 7.00.

Take `O=C(NC1(C(=O)O)Cc2ccccc2C1)c1ccc(C(F)(F)F)c(OCCc2cccc(Cl)c2)c1` [Example 186, 2-{3-[2-(3-chloro-phenyl)-ethoxy]-4-trifluoromethyl-benzoylamino}-indane-2-carboxylic acid]: the pIC50 was > 7.00.
